Where two headings read alike, the source gives them in different places.
Test system: E. coli (strains ATCC BAA 1427, 1428, 1429, 1430 and 1431)
Assay type: cell-based
Set-up: key: + = Growth; −1 = Inhibition; − = No Growth
Method: A microtiter experiment was conducted to evaluate the pathogen killing effect of the following pathogen killing agents: (1) about 100 μL of non-live-bacteria concentrate having dead bacteria alone (obtained from Example 8), (2) a blend of about 50 μL of non-live-bacteria concentrate having dead bacteria (obtained from Example 8), and about 50 μL of approximately 0.1 M lactic acid, or (3) about 100 μL of approximately 0.1 M lactic acid alone when added into Swanson® chicken broth and a source of pathogens.
About 100 μL chicken broth was added into microtiter wells 1 through 12. The pathogen killing agents were added at about 100 μL into wells 1 and 2. About 100 μL from the mixture of pathogen killing agent and chicken broth were then added to well 3 and then repeated thereafter to create the following dilutions, by volume, until well 11: 1:1, 1:2, 1:4, 1:8, 1:16, 1:32, 1:64, 1:128, 1:256, 1:512, and 1:1024. Next, into all microtiter wells, about 50 μL of a solution containing E. coli (strains ATCC BAA 1427, 1428, 1429, 1430 and 1431) were added such that an approximately 1×10^5 cfu/gram concentration of E. coli in each well was obtained. Well 12 served as the positive control by having no pathogen killing agent added. Microtiter plates containing the wells described above were then placed into an incubator at about 35° C. for either about 24 or about 48 hours. After the appropriate incubation time, microtiter plates were removed from the incubator and the color indicator (about 50 μL iodonitrotetrazolium salt reagent) was added into each well and the microtiter plate placed back into the incubator at about 35° C. for about an additional 4 hours to produce the desired color change reaction. Upon removal from the incubator, the color change and pH in each well were recorded.

Structure (SMILES): CC(O)C(=O)O (stereo not shown) [Lactic Acid, lactic acid]
- Microtiter well result, E. coli growth (dilution 1:1, After Incubating at 35° C. for 24 hours): −
- Microtiter well result, E. coli growth (dilution 1:1, After Incubating at 35° C. for 48 hours): −
- Microtiter well result, E. coli growth (dilution 1:2, After Incubating at 35° C. for 24 hours): −
- Microtiter well result, E. coli growth (dilution 1:2, After Incubating at 35° C. for 48 hours): −
- Microtiter well result, E. coli growth (dilution 1:4, After Incubating at 35° C. for 24 hours): −
- Microtiter well result, E. coli growth (dilution 1:4, After Incubating at 35° C. for 48 hours): +
- Microtiter well result, E. coli growth (dilution 1:8, After Incubating at 35° C. for 24 hours): −
- Microtiter well result, E. coli growth (dilution 1:8, After Incubating at 35° C. for 48 hours): +
- Microtiter well result, E. coli growth (dilution 1:16, After Incubating at 35° C. for 24 hours): −
- Microtiter well result, E. coli growth (dilution 1:16, After Incubating at 35° C. for 48 hours): +
- Microtiter well result, E. coli growth (dilution 1:32, After Incubating at 35° C. for 24 hours): −
- Microtiter well result, E. coli growth (dilution 1:32, After Incubating at 35° C. for 48 hours): +
- Microtiter well result, E. coli growth (dilution 1:64, After Incubating at 35° C. for 24 hours): −
- Microtiter well result, E. coli growth (dilution 1:64, After Incubating at 35° C. for 48 hours): +
- Microtiter well result, E. coli growth (dilution 1:128, After Incubating at 35° C. for 24 hours): +
- Microtiter well result, E. coli growth (dilution 1:128, After Incubating at 35° C. for 48 hours): −1
- Microtiter well result, E. coli growth (dilution 1:256, After Incubating at 35° C. for 24 hours): +
- Microtiter well result, E. coli growth (dilution 1:256, After Incubating at 35° C. for 48 hours): +
- Microtiter well result, E. coli growth (dilution 1:512, After Incubating at 35° C. for 24 hours): +
- Microtiter well result, E. coli growth (dilution 1:512, After Incubating at 35° C. for 48 hours): +
- Microtiter well result, E. coli growth (dilution 1:1024, After Incubating at 35° C. for 24 hours): +
- Microtiter well result, E. coli growth (dilution 1:1024, After Incubating at 35° C. for 48 hours): +
